Data: PMC3651043 (Biochemistry, 2013)

How the values were obtained:
[1] = target: pKSI (ketosteroid isomerase from Pseudomonas putida) (Pseudomonas putida, UniProt P07445); test: intrinsic fluorescence quenching; type: binding
[2] = target: tKSI (ketosteroid isomerase from Comamonas testosteroni) (Comamonas testosteroni, UniProt P00947, D38A); test: intrinsic fluorescence quenching; type: binding
[3] = target: tKSI (ketosteroid isomerase from Comamonas testosteroni) (Comamonas testosteroni, UniProt P00947, D38N); test: biochemical
Sequence of tKSI (ketosteroid isomerase from Comamonas testosteroni) (Comamonas testosteroni, UniProt P00947, D38N) (P00947 whole entry D38N): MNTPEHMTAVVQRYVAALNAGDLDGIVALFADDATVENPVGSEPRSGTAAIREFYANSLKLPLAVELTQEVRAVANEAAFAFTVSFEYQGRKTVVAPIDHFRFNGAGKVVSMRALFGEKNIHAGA

[4] = target: pKSI (ketosteroid isomerase from Pseudomonas putida) (Pseudomonas putida, UniProt P07445, D40N); test: biochemical
Sequence of pKSI (ketosteroid isomerase from Pseudomonas putida) (Pseudomonas putida, UniProt P07445, D40N) (P07445 whole entry D40N): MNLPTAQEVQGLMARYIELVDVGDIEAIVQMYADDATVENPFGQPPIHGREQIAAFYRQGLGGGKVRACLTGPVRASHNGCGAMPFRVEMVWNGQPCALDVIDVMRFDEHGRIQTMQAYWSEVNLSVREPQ

[5] = target: pKSI (ketosteroid isomerase from Pseudomonas putida) (Pseudomonas putida, UniProt P07445, D40A); test: intrinsic fluorescence quenching; type: binding
Sequence of pKSI (ketosteroid isomerase from Pseudomonas putida) (Pseudomonas putida, UniProt P07445, D40A) (P07445 whole entry D40A): as the sequence (P07445 whole entry D40N) above, with N40A counted along it

[6] = target: tKSI (ketosteroid isomerase from Comamonas testosteroni) (Comamonas testosteroni, UniProt P00947); test: intrinsic fluorescence quenching; type: binding
Sequence of tKSI (ketosteroid isomerase from Comamonas testosteroni) (Comamonas testosteroni, UniProt P00947) (P00947 whole entry): as the sequence (P00947 whole entry D38N) above, with N38D counted along it

Sequence of tKSI (ketosteroid isomerase from Comamonas testosteroni) (Comamonas testosteroni, UniProt P00947, D38A) (P00947 whole entry D38A): as the sequence (P00947 whole entry D38N) above, with N38A counted along it
Sequence of pKSI (ketosteroid isomerase from Pseudomonas putida) (Pseudomonas putida, UniProt P07445) (P07445 whole entry): as the sequence (P07445 whole entry D40N) above, with N40D counted along it

## C[C@]12CCC(=O)C=C1CC[C@@H]1[C@@H]2CC[C@]2(C)C(=O)CC[C@@H]12 [4-androstene-3,17-dione]
[1]
  Kd: 62.5 µM
[2]
  Kd: 0.909 µM
[3]
  Kd: 15.9 µM
[4]
  Kd: 1.33 µM
[5]
  Kd: 0.385 µM
[6]
  Kd: 62.5 µM
